Laboratory results reported in ChEMBL document CHEMBL4765413, “Discovery of novel anti-angiogenesis agents. Part 11: Development of PROTACs based on active molecules with potency of promoting vascular normalization” (Eur J Med Chem, 2020).

How the values were obtained:
[1] = biological target: Vascular endothelial growth factor receptor 2 (Homo sapiens, UniProt P35968); assay: Inhibition of recombinant human N-terminal GST-tagged VEGFR2 (789 to end residues) expressed in baculovirus infected Sf9 insect cells using Poly (4:1 Glu, Tyr) as substrate incubated for 1 hr by ADP-Glo luminescent assay
Sequence of Vascular endothelial growth factor receptor 2 (P35968 whole entry): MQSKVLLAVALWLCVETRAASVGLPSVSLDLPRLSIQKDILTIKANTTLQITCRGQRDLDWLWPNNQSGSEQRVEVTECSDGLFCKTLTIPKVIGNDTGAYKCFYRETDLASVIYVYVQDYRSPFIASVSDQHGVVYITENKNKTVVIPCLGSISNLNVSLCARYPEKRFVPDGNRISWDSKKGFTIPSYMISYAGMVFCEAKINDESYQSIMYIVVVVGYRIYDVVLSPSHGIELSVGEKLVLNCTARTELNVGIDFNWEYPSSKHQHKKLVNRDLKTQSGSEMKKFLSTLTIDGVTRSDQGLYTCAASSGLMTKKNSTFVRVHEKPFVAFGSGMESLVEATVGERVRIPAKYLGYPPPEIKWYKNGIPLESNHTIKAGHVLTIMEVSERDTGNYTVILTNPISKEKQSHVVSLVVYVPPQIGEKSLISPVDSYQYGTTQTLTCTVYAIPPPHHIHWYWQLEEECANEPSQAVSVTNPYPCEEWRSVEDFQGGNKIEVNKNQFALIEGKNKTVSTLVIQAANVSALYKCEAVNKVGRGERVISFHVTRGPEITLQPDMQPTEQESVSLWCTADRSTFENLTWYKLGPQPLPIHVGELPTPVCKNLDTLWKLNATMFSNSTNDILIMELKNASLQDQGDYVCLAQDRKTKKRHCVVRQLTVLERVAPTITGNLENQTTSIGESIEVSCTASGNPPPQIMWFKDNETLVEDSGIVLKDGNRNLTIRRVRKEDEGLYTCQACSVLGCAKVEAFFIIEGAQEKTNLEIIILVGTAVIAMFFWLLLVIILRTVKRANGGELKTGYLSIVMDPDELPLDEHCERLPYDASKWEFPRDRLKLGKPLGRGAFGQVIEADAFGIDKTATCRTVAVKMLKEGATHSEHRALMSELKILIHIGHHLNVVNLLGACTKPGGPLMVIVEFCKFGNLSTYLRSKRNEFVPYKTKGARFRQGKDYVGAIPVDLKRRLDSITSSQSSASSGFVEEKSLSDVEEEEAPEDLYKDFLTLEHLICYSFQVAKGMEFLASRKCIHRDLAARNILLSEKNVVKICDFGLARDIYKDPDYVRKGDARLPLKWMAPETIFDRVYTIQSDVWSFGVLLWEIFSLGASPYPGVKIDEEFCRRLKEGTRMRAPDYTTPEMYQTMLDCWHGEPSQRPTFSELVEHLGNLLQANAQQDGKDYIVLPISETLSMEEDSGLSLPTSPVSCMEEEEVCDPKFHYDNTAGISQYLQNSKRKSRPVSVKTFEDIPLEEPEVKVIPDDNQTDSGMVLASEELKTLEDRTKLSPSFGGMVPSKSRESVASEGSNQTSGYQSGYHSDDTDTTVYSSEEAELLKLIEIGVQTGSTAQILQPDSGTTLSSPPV

[2] = system: HEK293; assay: Cytotoxicity against HEK293 cells measured after 24 hrs by MTT assay; type: cell-based; conditions: human, hek293, 24 h
[3] = system: EA.hy 926; assay: Antiangiogenic activity in human EA.hy 926 cells measured after 24 hrs by MTT assay; conditions: EA.hy 926, 24 h

IC50 [1] [nM]	Structure (SMILES)	Activity [2]	IC50 [3] [nM]
> 1000	Cc1ncsc1-c1ccc(CNC(=O)[C@@H]2C[C@@H](O)CN2C(=O)[C@@H](NC(=O)CCCCCC(=O)n2nc(N)c3c(-c4cccc(NC(=O)Nc5cccc(C(C)C)c5)c4)cccc32)C(C)(C)C)cc1	Non-Toxic	> 100000
> 1000	Cc1ccc(F)c(NC(=O)Nc2ccc(-c3cccc4c3c(N)nn4C(=O)CCCCCC(=O)N[C@H](C(=O)N3C[C@H](O)C[C@H]3C(=O)NCc3ccc(-c4scnc4C)cc3)C(C)(C)C)cc2)c1	Non-Toxic	133000
80.4	Cc1ccc(F)c(NC(=O)Nc2ccc(-c3cccc4c3c(N)nn4C(=O)CCCCCCCCCCCCCCC(=O)N[C@H](C(=O)N3C[C@H](O)C[C@H]3C(=O)NCc3ccc(-c4scnc4C)cc3)C(C)(C)C)cc2)c1	Non-Toxic	
	Cc1ccc(F)c(NC(=O)Nc2ccc(-c3cccc4[nH]nc(N)c34)cc2)c1 [LINIFANIB]		2480
